The record followed here is ChEMBL document CHEMBL1139041, “Design and synthesis of 2'-anilino-4,4'-bipyridines as selective inhibitors of c-Jun N-terminal kinase-3” (Bioorg Med Chem Lett, 2006).

A short description of data set [1]: Solubility in phosphate buffer at pH 7.4. Type of data set: physicochemical.
Data set [2] can be described thus: Intrinsic clearance in rat microsomes. The data set is classed as ADME, Microsome. As to conditions: liver microsomes. A general note: Liver microsomes are a subcellular fraction often used to study metabolism.
Data set [3] is described as follows: Permeability across Caco-2 cell membrane. Type of data set: ADME, cell-based. As to conditions: human, read-out: permeability.
The nature of data set [4]: Bioavailability in rat. The data set is classed as ADME, organism-based. The conditions noted are these: in vivo.
Data set [5] is described as follows: Clearance in rat. The data set is classed as ADME, organism-based. The conditions noted are these: in vivo.
A short description of data set [6]: Half life in po dosed rat. Type of data set: ADME, organism-based. As to conditions: in vivo.

Molecules are shown by their SMILES. Values after ≈ are worked out from the molar mass of the structure shown. Bounds are passed on as bounds.

In general, solubility refers to the concentration that dissolves in the medium under given conditions. The low end stands for little dissolved substance, the high end for much dissolved substance. Regarding `CC(=O)N1CCC(C(=O)Nc2cc(-c3ccnc(Nc4ccccc4)c3)ccn2)CC1`, the solubility in data set [1] stood at 94 µM (≈ 39.1 µg/mL).
In data set [1], `O=C(Nc1cc(-c2ccnc(Nc3ccccc3)c2)ccn1)c1ccco1` returned a solubility of 4 µM (≈ 1.43 µg/mL).
Still for that read-out and setting: next, `Cc1cnc(C(=O)Nc2cc(-c3ccnc(Nc4ccccc4)c3)ccn2)cn1`: 40 µM (≈ 15.3 µg/mL); `COCCC(=O)Nc1cc(-c2ccnc(Nc3ccccc3)c2)ccn1`: 20 µM (≈ 6.97 µg/mL).
Still for that read-out and setting: next, `Fc1ccc(Nc2cc(-c3ccnc(Nc4ccc(F)cc4)c3)ccn2)cc1`: under 0.1 µM.
Still for that read-out and setting: next, `COC1CCC(C(=O)Nc2cc(-c3ccnc(Nc4ccccc4)c3)ccn2)CC1` (configuration not stated): 8 µM (≈ 3.22 µg/mL).
By microsomal CLint is commonly meant the capacity of the preparation to metabolise the compound, expressed as a volume cleared per time. A high value points to faster metabolism. A word on the bioavailability: it is the share of a dose that reaches the circulation, judged against a reference dose that is usually intravenous. The low end stands for poor availability, the high end for good availability. What is called clearance is the volume of plasma or blood freed of the substance per unit of time. Broadly, the half-life is the time needed for the level to fall by half in the phase considered. A low value points to rapid decline. In data set [2], `O=C(Nc1cc(-c2ccnc(Nc3ccccc3)c2)ccn1)C1CCOC1` (configuration not stated) returned an intrinsic clearance (microsomal CLint) of 12 µL/min/mg. Also, the Papp in data set [3] worked out at 29.9 ×10⁻⁶ cm/s. The bioavailability in data set [4] is 16%. In data set [5], the clearance amounted to 30 mL/min/kg. Further, the half-life in data set [6] is 4.7 h.
For the compound `O=C(Nc1cc(-c2ccnc(Nc3ccccc3)c2)ccn1)c1cccnc1`, the solubility in data set [1] stood at 17 µM (≈ 6.25 µg/mL). This counts as double-digit micromolar.
